Test results taken from ChEMBL document CHEMBL3886748, “Indazole derivatives useful as ERK inhibitors” (2016).

Target: Mitogen-activated protein kinase 1 (Mus musculus, UniProt P63085)
Experiment: Active ERK2 (aERK) Assay: Activated ERK2 activity was also determined in the IMAP assay format using the procedure outlined above. 1 μl of 25× compound was added to 14 μl of kinase buffer containing 0.25 ng fully phosphorylated, active Mouse ERK2 protein. Following a 30 minute incubation, the reactions were initiated by addition of 10 μl of kinase buffer containing 1 μM ERK2 IMAP substrate peptide (0.9 μM unlabeled IPTTPITTTYFFFK-CONH2 and 100 nM IPTTPITTTYFFFK(5-carboxyfluorescein)-CONH2) and 30 μM ATP. Reactions proceeded for 30 minutes before termination by addition of 60 μl IMAP detection beads in binding buffer. Plates were read as above after 30 minute binding equilibration. Active compounds were reconfirmed in an independent assay.

Mitogen-activated protein kinase 1, sequence (P63085 whole entry): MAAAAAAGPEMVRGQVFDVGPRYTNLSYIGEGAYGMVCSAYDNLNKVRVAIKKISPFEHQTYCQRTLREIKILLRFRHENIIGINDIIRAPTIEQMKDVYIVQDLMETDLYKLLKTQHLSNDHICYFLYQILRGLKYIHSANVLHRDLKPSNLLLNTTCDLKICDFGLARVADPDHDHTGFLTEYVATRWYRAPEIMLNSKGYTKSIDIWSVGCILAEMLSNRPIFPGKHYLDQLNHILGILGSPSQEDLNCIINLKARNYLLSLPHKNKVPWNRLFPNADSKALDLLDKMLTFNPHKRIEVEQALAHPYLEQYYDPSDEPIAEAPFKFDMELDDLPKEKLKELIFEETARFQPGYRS

IC50	Compound
772 nM	Cc1cc(-c2n[nH]c3ccc(C(=O)N[C@H]4CCC[C@@](O)(Cn5cc6cc(F)ccc6n5)C4)cc23)ccn1 (relative stereo)
404 nM	Cc1cc(-c2n[nH]c3ccc(C(=O)N[C@@H]4CCC[C@](O)(Cn5cc6cccnc6n5)C4)cc23)ccn1 (relative stereo)
